Measured values reported in US12085564B2, “Assay to determine in vivo receptor occupancy” (BRISTOL-MYERS SQUIBB COMPANY, priority 2018, dated 2024).

Molecular target: T1, Recombinant BTK (Homo sapiens, UniProt Q06187)
T1 construct: purchased Life Technologies (Carlsbad, CA) PV3587
Experiment: Preparation of DB-BTK / QB-BTK reference standards: covalent reaction of recombinant BTK with excess drug or quencher
Type: biochemical
Details: recombinant BTK 5.9 μM, excess amount of drug, RT for 1 h
Description: Recombinant BTK (5.9 μM, 200 μL) was combined with 400 μL of PBS, and then spiked with 15 μL of 1.0 mg/mL drug solution (compound shown in FIG. 1A) in acetonitrile (2701 μM drug, 15 μL). The solution was then incubated at RT for 1 h, resulting in a DB-BTK concentration of 1919 nM.
Recombinant BTK (5.9 μM, 200 μL) was combined with 400 μL of PBS, and then spiked with 15 μL of 1.0 mg/mL quencher solution (compound shown in FIG. 1B) in acetonitrile (2806 μM quencher, 15 μL). The solution was incubated at RT for 1 h, resulting in a QB-BTK concentration of 1919 nM.

T1 sequence (Q06187 whole entry): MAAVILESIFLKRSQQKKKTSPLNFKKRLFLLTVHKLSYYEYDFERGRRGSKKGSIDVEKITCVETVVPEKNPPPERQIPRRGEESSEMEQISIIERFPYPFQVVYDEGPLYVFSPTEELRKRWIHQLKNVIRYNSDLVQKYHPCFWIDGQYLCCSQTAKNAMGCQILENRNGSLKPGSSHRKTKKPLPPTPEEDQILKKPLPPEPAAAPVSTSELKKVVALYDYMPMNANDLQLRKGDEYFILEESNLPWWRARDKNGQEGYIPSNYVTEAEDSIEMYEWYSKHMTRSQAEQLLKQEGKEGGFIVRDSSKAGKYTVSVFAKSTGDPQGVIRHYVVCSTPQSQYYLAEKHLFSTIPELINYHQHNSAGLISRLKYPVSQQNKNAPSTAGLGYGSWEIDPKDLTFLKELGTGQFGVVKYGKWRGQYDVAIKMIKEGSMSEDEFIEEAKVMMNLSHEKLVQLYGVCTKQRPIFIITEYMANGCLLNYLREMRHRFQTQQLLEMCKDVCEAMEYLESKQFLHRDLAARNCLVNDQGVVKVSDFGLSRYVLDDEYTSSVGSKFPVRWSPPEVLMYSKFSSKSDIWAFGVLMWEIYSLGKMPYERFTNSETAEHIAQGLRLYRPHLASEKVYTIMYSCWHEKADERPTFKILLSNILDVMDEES

CC#CC(=O)N[C@H]1CCCN(c2c(F)cc(C(N)=O)c3[nH]c(C)c(C)c23)C1 [compound shown in FIG. 1A]
conversion of free BTK to DB-BTK: ~100%
